In assay [1] the test system is NFκB-promoter activity in TNFa-stimulated THP-1 monocyte/macrophages. In words: NFκB promoter activity in TNFα-stimulated THP-1 cells (beta-lactamase reporter). To be noted: for inhibition at 30 µM: Homo sapiens, THP-1, read-out: % inhibition compared to control; for inhibition at 30 µM / Inflammatory index: test compound 30 μM; for Inflammatory index: control 11.56 ± 0.49. Format: cell-based, human. Here is the method: The assay utilizes a genetically modified THP-1 cell line and GeneBLAzer® beta-lactamase technology (Invitrogen Corp). The human THP-1 monocyte/macrophages contain a stably-transfected beta-lactamase reporter gene under control of the NFκB response element They respond to stimulation with TNF-a, which leads to activation of the NFκB signaling pathway. Co-incubation of cells with TNF-a and test material allows quantitative determination of the ability of test material to inhibit TNFa-stimulated beta-lactamase production. Inflammatory index is calculated as the ratio of beta-lactamase product to beta-lactamase substrate. In brief, genetically modified THP-1 cells were seeded into wells of a 96-well plate (50×10^3 cells/well) in the presence of RPMI 1640 medium (70 μl). TNFα was added to each well (10 μl) to give a final concentration of 7.5 ng/ml. Dialyzed bovine serum was added (10 μl). Compounds dissolved in DMSO (10 μL) were then added (5 wells for each compound). Each plate contained a no-cell control (4 wells), a no-serum control (4 wells) and two serum controls. Plates were incubated for 5 h at 37° C. to allow for NFκB-stimulated beta-lactamase production. LiveBLAzer™ FRET B/G Substrate (CCF4-AM) substrate was then added to assay. CCF4-AM is a Forster resonance energy transfer (FRET) based substrate for beta-lactamase developed by Invitrogen Corp. Once CCFA-AM enters a cell, it is converted to negatively charged CCF4 by endogenous esterases. Excitation of this substrate at 409 nm leads to efficient FRET between the coumarin and fluorescein moieties, resulting in a green fluorescence detectable at 530 nm. The presence of beta-lactamase leads to cleavage of CCF4 and results in a loss of FRET, resulting in a robust blue fluorescent signal detectable at 460 nm. Thus, activity of beta-lactamase (a marker of NFκB-promoter activity) is measured as a product to substrate ratio (blue/green fluorescence ratio: 460 nm/530 nm). The determination of inflammatory index has a within-plate CV of 2.1% and a between-plate CV of 8.9% This comparative study was conducted according to the assay method set out in the example at Section 2.4 above.

The test system of the next assay is red blood cells (RBC). Nature of the assay: Peroxyl radical (AAPH)-induced red blood cell lysis. It counts as cell-based. As to conditions: for Time taken to reach half-lysis, time: test compounds at 10 μM, vehicle 40.0. Here is the method:
Freshly collected heparinised venous blood (10 ml, on ice) was aliquotted into 1.8 ml sterile Eppendorf tubes and centrifuged for 10 minutes at 2600 rpm at 4° C. Plasma and buffy coat layers were removed (approximately […]) and packed red blood cells (RBC) were then washed by the addition of […], ice cold PBS. This washing procedure was repeated twice. Packed RBC were resuspended by the addition of 900 ml of ice-cold, sterile PBS (and termed RBC stock). RBC stocks were stored at 4° C. for a maximum of three days. All working suspensions of RBC were prepared fresh daily by diluting […] of RBC stock into 10 ml of ice-cold, sterile PBS and […] added to each well.
Stocks of AAPH were freshly prepared for individual experiments as follows. AAPH (1.22 gm) was dissolved in 7.5 ml of PBS to yield a 4× stock at 600 mM and […] aliquots (final concentration of 150 mM) were then added to each well to initiate the lysis assay. Stock solutions of test compounds (40 mM in 100% DMSO) were diluted in sterile PBS to yield final concentrations of […] per well. Appropriate controls were included in each experiment. All compound dilutions were adjusted to give final DMSO concentrations in each well of 0.25%. Peroxy-induced RBC lysis assays were performed in 96-flat bottom well microtitre plates with a total volume of […] per well. Turbidity of RBC suspensions were monitored using a Tecan microplate reader at 690 nm (37° C.) with gentle vortexing. Assays were performed in quadruplicate and readings were taken every 5 minutes over 5 hours. RBC lysis curves were constructed by plotting absorbance (mean of 4 readings) against time. Time to half-lysis was calculated by taking the highest absorbance reading (no lysis) and the lowest absorbance reading (maximum lysis). The sum of these two readings divided by two gave the absorbance at half-lysis. Simple regression analysis was used to calculate the time at which half-lysis absorbance occurred.
This comparative study was conducted according to the assay method set out in the example at Section 3.3 above.

The test system of another assay is MDA-MB-468. Nature of the assay: Anti-cancer activity, MDA-MB-468 breast cancer cells (MTT). Format: cell-based. To be noted: Homo sapiens, MDA-MB-468, 120 h, 5 days.

SMILES strings stand for the structures.

Turning to `Oc1ccc(C2=Cc3cc4c(cc3OC2)OCN(Cc2ccccc2)C4)cc1` [Compound 1, 4-(3-Benzyl-2,3,4,8-tetrahydrochromeno[6,7-e][1,3]oxazin-7-yl)phenol], in assay [1], the inhibition at 30 µM worked out at 45.5% and the Inflammatory index is listed as 6.31 ± 0.36. In addition, the “Time taken to reach half-lysis, time” value in the assay with red blood cells (RBC) (Table 8) stood at 141.6 min. Also, in the assay with red blood cells (RBC) (comparative, Table 14), the “Time taken to reach half-lysis, time” value came to 141.6 min. In the assay on MDA-MB-468, this compound gave an IC50 of 5.25 ± 2.1 µM.
Take `Oc1cccc(C2=Cc3ccc(O)cc3OC2)c1` [Compound 37-DHE, 3′,7-dihydroxy-isoflav-3-ene, reference compound]: in assay [1] (30 μM, FIG. 19), the “NFκB inhibition” value is on record as “inhibited NFκB”. Moreover, in the assay on red blood cells (RBC), the “antioxidant activity, AAPH-induced time to half-lysis of red blood cells” value is recorded as “delaying the AAPH-induced time to half-lysis”. For the same compound, the “Time taken to reach half-lysis, time” value in the assay with red blood cells (RBC) (comparative, Table 14) came out at 126.6 min.
As for `CC(c1ccccc1)N1COc2cc3c(cc2C1)C=C(c1ccc(O)cc1)CO3` (stereo not shown) [Compound 2, 4-(3-(1-Phenylethyl)-2,3,4,8-tetrahydrochromeno[6,7-e][1,3]oxazin-7-yl)phenol], in assay [1], the inhibition at 30 µM came out at 34.8% and the Inflammatory index is recorded as 7.54 ± 0.17. Besides, in the assay on red blood cells (RBC), the “antioxidant activity, AAPH-induced time to half-lysis of red blood cells” value is “delaying the AAPH-induced time to half-lysis”. The “Time taken to reach half-lysis, time” value with red blood cells (RBC) (Table 8) came out at 124.3 min. In the assay with MDA-MB-468, this compound displayed a 50% inhibitory concentration (IC50) of 4.87 ± 2.6 µM.

Source of the values: patent publication US8367659B2, “Oxazinyl isoflavonoid compounds, medicaments and use” (Marshall Edwards, Inc., priority 2007, dated 2013).
